In patent publication US20230270753A1, “COMBINATIONS OF GABAA ALPHA 5 AGONISTS AND SV2A INHIBITORS AND METHODS OF USING IN THE TREATMENT OF COGNITIVE IMPAIRMENT” (AGENEBIO, INC., priority 2020, published 2023):

What was measured:
[1] = following oral administration; cited from earlier work
[2] = test system: aMCI subjects; assay: Neuropsychological tests outside the scanner (Buschke, Benton, Verbal Paired Associates); assay type: in vivo, human; conditions: levetiracetam 125 mg twice a day for two weeks
[3] = test system: reelin in Entorhinal Cortex (EC2); assay: Reelin mRNA in situ hybridization in entorhinal cortex (Example 5); assay type: in vivo, rat
[4] = test system: aged-impaired (AI) Long-Evans rats; assay: Morris Water Maze retention trial, levetiracetam (Example 1); assay type: in vivo, rat; conditions: levetiracetam 5 mg/kg/day i.p.; retention trial 24 hours after last training trial
Protocol: Six aged-impaired (AI) Long-Evans rats (as characterized above) were tested for their memory of new spatial information in the Morris water maze (MWM), under different drug/control treatment conditions (vehicle control and two different dosage levels of levetiracetam). A retention trial was performed after the training trials, as described below. The MWM apparatus consists of a large, circular pool (diameter 1.53 m; height, 0.58 m) filled with water (27° C.) that is made opaque through the addition of non-toxic pigment or some other substance. In the typical “hidden platform” version of the test, rats are trained to find a camouflaged white escape platform (height, 34.5 cm) that is positioned in the center of one quadrant of the maze about 1.0 cm below the water surface. This platform can be retracted to the bottom of the tank or raised to its normal position from outside the maze during behavioral testing. The location of the platform remains constant from trial to trial. […] The behavior of a rat in the pool is recorded by a camera that is suspended 2.5 m above the center of the pool. […] In the retention trial, the time the AI rats spent swimming in the target quadrant is measured and further plotted as a percentage of total swimming time. […]

[5] = test system: somatostatin in DG hilus; assay: Somatostatin immunohistochemistry, hilar interneuron counts (Example 5); assay type: in vivo, rat; conditions: levetiracetam 10 mg/kg/day in osmotic minipumps for four weeks; aged-impaired rats
Excerpt: Tissue was labeled with anti-SOM antiserum (Santa Cruz Biotechnology; cat. no. SC7819-P) using an established immunoperoxidase protocol and tissue sections were processed concurrently to minimize inter-replication variability (Haberman et al., 2009). The anti-SOM antiserum can detect somatostatin. Briefly, sections were washed in 0.1M phosphate-buffered saline (PBS) to remove cryoprotectant, and endogenous peroxidases were quenched in 0.3% H2O2 in PBS. After additional PBS washes, sections were blocked in 5% normal horse serum in PBS with 0.3% Triton. Sections were then incubated with primary antibody at a dilution of 1:1600 in PBS containing 0.15% Triton and 3% normal serum for 72 hours at 4° C. with agitation. […] The secondary antibody was detected with avidin-biotin complex (ABC Elite; Vector Laboratories Inc., Burlingame, Calif.) and the avidin-biotin complex was visualized with nickel-enhanced diaminobenzadine (Vector Laboratories Inc., Burlingame, Calif.). […]
Interneuron quantification was performed using a Zeiss Axioplan 2 microscope equipped with a motorized stage. […] Neuron counts were analyzed as the total number of hilar interneurons per hippocampal section for each rat.

[6] = test system: aMCI subjects; assay: Explicit 3-alternative forced choice task performance (Examples 2 and 3); assay type: in vivo, human
[7] = test system: aMCI subjects; assay: fMRI activity of medial temporal lobe subregions during the explicit 3-alternative forced choice task (Examples 2 and 3); assay type: in vivo, human
Protocol: A within-subjects trial of 8 weeks duration, involving 17 amnestic MCI (aMCI) subjects and 17 age-matched controls with a low dose treatment of levetiracetam is conducted. […] Age-matched control subjects treated with placebo serve as a further control. […] The […]

CC[C@@H](C(N)=O)N1CCCC1=O [levetiracetam, (2S)-2-(2-oxopyrrolidin-1-yl)butanamide]
time of peak plasma concentrations [1]: about 1 hour | performance in Buschke Selective Reminding Test-Delayed Recall, Benton Visual Retention Test, Verbal Paired Associates Test-Recognition and -Delayed Recall [2]: fail to rescue performance | reelin mRNA expression in the lateral entorhinal cortex vs AI-VEH ([3]; levetiracetam 10 mg/kg/day for 28 days, AI rats): significantly increased the expression of reelin | levels of reelin in Entorhinal Cortex (EC2) ([3]; levetiracetam 10 mg/kg/day in osmotic minipumps for four weeks, aged-impaired rats): restores the levels of reelin in Entorhinal Cortex (EC2) | time spent in the target quadrant vs vehicle [4]: did not significantly improve | levels of somatostatin in DG hilus (SOM-immunoreactive hilar neurons) [5]: restores the levels of somatostatin in DG hilus | performance in the explicit 3-alternative forced choice task ([6]; levetiracetam 62.5 mg BID for two weeks): improves significantly | performance in the explicit 3-alternative forced choice task ([6]; levetiracetam 125 mg twice a day for two weeks): improves significantly | performance in the explicit 3-alternative forced choice task ([6]; levetiracetam 250 mg BID for two weeks): does not significantly improve | DG/CA3 hyperactivity during memory judgments ([7]; levetiracetam 62.5 mg BID for two weeks, aMCI subjects (N=20)): does not significantly reduce | entorhinal cortex (EC) activity during memory judgments ([7]; levetiracetam 125 mg twice a day for two weeks, aMCI subjects): increases EC activity | DG/CA3 activity during lure stimuli correctly identified as similar ([7]; levetiracetam 125 mg twice a day for two weeks, vs placebo in same aMCI subjects): reduces DG/CA3 hyper-activity | DG/CA3 hyperactivity during memory judgments ([7]; levetiracetam 250 mg BID for two weeks, aMCI subjects (N=17)): does not significantly reduce
